In one test the test system is AIA mice. Put plainly: Antigen-induced arthritis (AIA) model. In kind it is in vivo, mouse. An excerpt: FIGS. 25A-25E depict distinguishable effects of GM-CSF and TNF-α in mouse AIA. […] Data are representative of more than three independent experiments. Representative images of joint sections stained with H&E (FIG. 25C) or Safranin-O/Fast Green (FIG. 25D) at day 7 after arthritis induction as in FIG. 25C. Bars, 500 μm (FIG. 25C upper panels and FIG. 25D) or 100 μm (FIG. 25C lower panels). Arrow in upper panels (FIG. 25C) indicated bone destruction. In FIG. 25E, serum concentrations of GM-CSF, IFN-γ and TNF-α in Stat5^+/+ and Stat5−/− AIA mice were quantified by ELISA. Statistics of n>=8 per group were shown. *p<0.05, **p<0.01, ***p<0.001.
FIGS. 28A-28G depicts STAT5-regulated GM-CSF-producing TH cells are crucial for AIA. Spleens and synovial tissues were collected from Stat5^+/+ and Stat5^−/− mice at day 7 after arthritis induction. (FIG. 28A) Splenic fractions of wild-type AIA mice (n=3) were stimulated under indicated conditions for 18 h. GM-CSF levels in supernatant were quantified by ELISA. (FIGS. 28B-28D) Intracellular staining and flow cytometry of GM-CSF, IL-17 and IFN-γ in splenic CD4^+CD44^hi effector T cells (FIG. 28B) or in synovial infiltrating CD4^+ T cells (FIGS. 28C and 28D) after restimulation for 4 h with PMA/Ionomycin in the presence of Golgiplug. Representative images and statistics of n=5 (FIG. 28B, right panels) or n=3 (FIG. 28D, right panels) per group were shown. Data represent two independent experiments. (FIG. 28E) Protein expression of several proinflammatory cytokines in synovial tissues was measured by ELISA. (FIGS. 28F and 28G) Representative images of joint sections stained with H&E (FIG. 28F) or Safranin-O/Fast Green (FIG. 28G) at day 7 after intraarticular injection of mBSA alone to the right knee joints and mBSA supplemented with GM-CSF to the left knee joints. Bars, 500, 50 or 200 μm as indicated. Data represent two independent experiments.*p<0.05, **p<0.01, p<0.05, **p<0.01, ***p<0.001; ns, not significant. “Splenocytes” represent the left-most bars in each group, “splenocytes depleted of CD4+ T cells” represent the middle bars in each group, and “CD4+ T cells” represent the right-most bars in each group.
FIGS. 31A-31D depicts SAT5-induced GM-CSF expression mediates CD11b^+ cell accumulation in inflamed synovial tissues. (FIG. 31A) The frequencies of CD11b^+ cells in spleens of Stat5^+/+ and Stat5^−/− AIA mice were analyzed by flow cytometry. Statistics of n=3 per group (right panel) were shown. (FIG. 31B) Synovial tissues were harvested from Stat5^+/+ and Stat5^−/− mice at day 7 after arthritis induction, and dissociated into single cell suspensions. The percentage of CD11b^+ myeloid cells among CD45^+ fraction was analyzed by flow cytometry. Statistics of n=5 per group were shown in right panel. […]

The test system of a further test is neutrophils. Put plainly: Neutrophil apoptosis, Annexin V and PI co-staining. It counts as cell-based, mouse. The following applies: 20 ng/ml, 24 h. As to the method:
FIGS. 33A-33C depicts GM-CSF enhances neutrophil transmigration and delay apoptosis in vitro. (FIG. 33A) Percentages of migrated neutrophils with or without GM-CSF as chemoattractant in transmigration assay at 3 h post start. (FIG. 33B) Microscopic images of CFSE-labeled neutrophils in the bottom of the lower chamber in transmigration assay. (FIG. 33C) Sorted neutrophils were cultured in vitro with or without GM-CSF (20 ng/ml) for 24 h. Neutrophils undergoing apoptosis were examined by Annexin V and propidium iodide (PI) co-staining. A representative flow cytometry of three repeats was shown. *p<0.05.
Neutrophils are recruited during inflammation, in which complex interactions between neutrophils and vascular endothelial cells direct neutrophil adhesion and transmigration from circulation to inflamed tissues (Kolaczkowska and Kubes, 2013). […] Effective neutrophil apoptosis is crucial for the resolution of inflammation. However, in synovitis, neutrophil apoptosis is delayed with a result of extended survival and persistent inflammation (Wright et al., 2014). […] To determine the critical role of neutrophils in AIA, \ neutralizing antibody (1A8) specific for Ly6G was used to deplete neutrophils in vivo. […] Thus, neutrophils accumulation mediated by TH-cell-derived GM-CSF are important for AIA development.

The mark [1] stands for this setting: 100 ng intraarticular together with mBSA, day 7.

On to “GM-CSF: granulocyte macrophage colony-stimulating factor (ImmunoTools) given intraarticularly or added to cell cultures”, for which, in the test with AIA mice (setting [1]), the “cartilage depletion in Stat5−/− mice (Safranin-O/Fast Green)” value is “severe cartilage depletion” and the “synovial inflammation in Stat5−/− mice” value is listed as “efficiently restored synovial inflammation”. Besides, the “neutrophil accumulation in synovial compartments of STAT5-deficient mice” value in the test on AIA mice (intraarticular administration during arthritis induction) was “efficiently restored neutrophil accumulation”. Besides, the “synovial CD11b+ cell accumulation in STAT5-deficient mice” value in the test on AIA mice (local administration during arthritis induction) is “partially restored”. In addition, the neutrophil apoptosis entry with neutrophils is listed as “profound efficacy in delaying neutrophil apoptosis”.

Source of the values: US10690666B2, “Methods and compositions for modulating TH-GM cell function” (National University of Singapore, priority 2014, dated 2020).
